Measurements as given in patent publication US10442833B1 (KING SAUD UNIVERSITY, priority 2018, dated 2019).
≈ marks a conversion by molar mass, not a printed value.

Legend:
[1] = test system: Staphylococcus epidermidis (RCMB 010024); experiment: Agar well diffusion, Staphylococcus epidermidis; type: cell-based; details: Reference Drug, 30 μg/mL; well diameter 6 mm; 37° C., 18 to 24 h; in mm
Experimental: (§1) Antimicrobial tests were carried out by agar well diffusion according to the National Committee for Clinical Laboratory Standards (NCCLS) criteria. […] Then, 100 μl of 10% tested sample was added to the wells, while 10% DMSO was used as the negative control. […] Each test was performed in triplicate and the average of the results was calculated. The extraction solvents were used as negative controls (NCCLS, 2002; 2004).

[2] = test system: Staphylococcus aureus (RCMB 010027); experiment: Agar well diffusion, Staphylococcus aureus; type: cell-based; details: Reference Drug, 30 μg/mL; well diameter 6 mm; 37° C., 18 to 24 h; in mm
Experimental: as §1

[3] = test system: Streptococcus pyogenes (RCMB 010015); experiment: Agar well diffusion, Streptococcus pyogenes; type: cell-based; details: Reference Drug, 30 μg/mL; well diameter 6 mm; 37° C., 18 to 24 h; in mm
Experimental: as §1

[4] = test system: Geotricum candidum (RCMB 05007); experiment: Agar well diffusion, Geotricum candidum; type: cell-based; details: Reference Drug, 30 μg/mL; well diameter 6 mm; 37° C., 18 to 24 h
Experimental: (§2) Antimicrobial tests were carried out by agar well diffusion according to the National Committee for Clinical Laboratory Standards (NCCLS) criteria.
(§3) Bacterial and fungal suspensions were prepared at 0.5 McFarland standard turbulence in a volume of 100 μL and were cultivated on Mueller-Hinton agar and Sabouraud dextrose media punched with 6-mm diameter wells for the bacteria and fungi, respectively. Then, 100 μl of 10% tested sample was added to the wells, while 10% DMSO was used as the negative control. Ampicillin, gentamicin, and amphotericin B (30 μg/mL) were used as standard agents against the Gram-positive bacteria, Gram-negative bacteria, and fungi, respectively. After incubation of the plates at 37° C. for 18 to 24 h, the antimicrobial activity was evaluated by measuring the diameter of the inhibition zones. Each test was performed in triplicate and the average of the results was calculated. The extraction solvents were used as negative controls (NCCLS, 2002; 2004).

[5] = test system: Absidia corymbifera (RCMB 02564); experiment: Agar well diffusion, Absidia corymbifera; type: cell-based; details: Reference Drug, 30 μg/mL; well diameter 6 mm; 37° C., 18 to 24 h
Experimental: as §2, §3

[6] = test system: Candida albicans (RCMB); experiment: Agar well diffusion, Candida albicans; type: cell-based; details: Reference Drug, 30 μg/mL; well diameter 6 mm; 37° C., 18 to 24 h
Experimental: as §2, §3

[7] = test system: MDA (breast cancer cells); details: reported by Al-Massarani et al., Molecules 2017; cited from earlier work
[8] = test system: Hela cells; details: reported by Al-Massarani et al., Molecules 2017; cited from earlier work
[9] = test system: A549 cells; details: reported by Al-Massarani et al., Molecules 2017; cited from earlier work
[10] = test system: Klebsiella pneumoniae (RCMB 0010093); experiment: Agar well diffusion, Klebsiella pneumoniae; type: cell-based; details: Reference Drug, 30 μg/mL; well diameter 6 mm; 37° C., 18 to 24 h; in mm
Experimental: as §1

[11] = test system: Salmonella enteritidis (RCMB 010084); experiment: Agar well diffusion, Salmonella enteritidis; type: cell-based; details: Reference Drug, 30 μg/mL; well diameter 6 mm; 37° C., 18 to 24 h; in mm
Experimental: as §1

[12] = test system: Proteous vulgaris (RCMB 010085); experiment: Agar well diffusion, Proteous vulgaris; type: cell-based; details: Reference Drug, 30 μg/mL; well diameter 6 mm; 37° C., 18 to 24 h; in mm
Experimental: as §1

With `CC1(C)S[C@@H]2[C@H](NC(=O)[C@H](N)c3ccccc3)C(=O)N2[C@H]1C(=O)O` [Ampicillin] the “Zone of Inhibition” value [1] was 25.0, the “Zone of Inhibition” value [2] was 27.3 and the “Zone of Inhibition” value [3] was 26.3.
With `C[C@@H]1[C@H](O)[C@@H](C)/C=C/C=C/C=C/C=C/C=C/C=C/C=C/[C@H](O[C@@H]2O[C@H](C)[C@@H](O)[C@H](N)[C@@H]2O)C[C@@H]2O[C@](O)(C[C@@H](O)C[C@@H](O)[C@H](O)CC[C@@H](O)C[C@@H](O)CC(=O)O[C@H]1C)C[C@H](O)[C@H]2C(=O)O` [Amphotericin B] the “Zone of Inhibition” value [4] was 27.0, the “Zone of Inhibition” value [5] was 23.0 and the “Zone of Inhibition” value [6] was 25.7.
In the case of `C[C@H]1[C@H](C)CC[C@]2(C(=O)O)CC[C@]3(C)C(=CC[C@@H]4[C@@]5(C)CC[C@H](O)C(C)(C)[C@@H]5CC[C@]43C)[C@H]12` [ursolic acid], the IC50 [7] is listed as 47.76 µg/mL (≈ 105 µM), the IC50 [8] is listed as 50.2 µg/mL (≈ 110 µM) and the IC50 [9] is listed as 65.2 µg/mL (≈ 143 µM).
With Gentamycin the “Zone of Inhibition” value [10] was 26.4, the “Zone of Inhibition” value [11] was 25.2 and the “Zone of Inhibition” value [12] was 23.4.
